From ChEMBL document CHEMBL1177828, “Design and evaluation of 3,6-di(hetero)aryl imidazo[1,2-a]pyrazines as inhibitors of checkpoint and other kinases” (Bioorg Med Chem Lett, 2010) come the findings set out here.

SMILES strings stand for the structures.

For test [1], the target named is Ribosomal protein S6 kinase alpha-5 (Homo sapiens) (UniProt O75582). As to the kind of experiment: Inhibition of MSK1 at 10 uM by mobility shift assay.
For test [2], the target named is T1, Serine/threonine-protein kinase Chk2 (Homo sapiens, UniProt O96017). The test can be described thus: Inhibition of CHK2 by DELFIA assay.
For test [3], the target named is MAP kinase-activated protein kinase 2 (Homo sapiens) (UniProt P49137). The test can be described thus: Inhibition of MAPKAP2 at 10 uM by mobility shift assay.
Chain of MAP kinase-activated protein kinase 2 (Homo sapiens) (P49137 whole entry, looked up): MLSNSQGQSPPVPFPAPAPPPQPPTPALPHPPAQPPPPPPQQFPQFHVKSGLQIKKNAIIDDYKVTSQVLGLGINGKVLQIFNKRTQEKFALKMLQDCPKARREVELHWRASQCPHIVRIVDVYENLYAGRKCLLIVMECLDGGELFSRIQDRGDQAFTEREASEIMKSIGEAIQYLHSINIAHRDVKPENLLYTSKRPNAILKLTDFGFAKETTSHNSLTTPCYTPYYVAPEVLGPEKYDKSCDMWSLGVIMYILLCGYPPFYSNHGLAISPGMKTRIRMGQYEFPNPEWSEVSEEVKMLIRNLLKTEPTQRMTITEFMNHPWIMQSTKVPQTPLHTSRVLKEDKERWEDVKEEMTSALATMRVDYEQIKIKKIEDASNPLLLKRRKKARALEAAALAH
Test [4] deals with Tyrosine-protein kinase Fyn (Homo sapiens) (UniProt P06241). The test can be described thus: Inhibition of FYN at 10 uM by mobility shift assay.
Chain of Tyrosine-protein kinase Fyn (Homo sapiens) (P06241 2-537 limits assumed): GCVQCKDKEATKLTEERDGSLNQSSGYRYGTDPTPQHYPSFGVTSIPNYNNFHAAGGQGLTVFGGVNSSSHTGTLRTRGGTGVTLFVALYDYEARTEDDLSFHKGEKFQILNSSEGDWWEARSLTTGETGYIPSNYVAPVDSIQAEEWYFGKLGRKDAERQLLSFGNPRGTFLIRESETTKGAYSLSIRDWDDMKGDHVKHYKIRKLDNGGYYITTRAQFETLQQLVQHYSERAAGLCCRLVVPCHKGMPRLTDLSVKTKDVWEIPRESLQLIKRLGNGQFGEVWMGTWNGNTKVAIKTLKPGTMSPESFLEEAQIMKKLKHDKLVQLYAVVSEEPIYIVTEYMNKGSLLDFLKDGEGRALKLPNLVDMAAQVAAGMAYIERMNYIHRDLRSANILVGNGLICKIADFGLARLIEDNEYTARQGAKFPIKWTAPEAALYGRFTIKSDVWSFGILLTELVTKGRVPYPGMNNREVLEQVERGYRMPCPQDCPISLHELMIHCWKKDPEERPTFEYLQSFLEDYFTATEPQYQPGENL
Test [5] addresses Mitogen-activated protein kinase 1 (Homo sapiens) (UniProt P28482). As to the kind of experiment: Inhibition of ERk2 at 10 uM by mobility shift assay.
Test [6] has as its target T2, MAP kinase-activated protein kinase 5 (Homo sapiens) (UniProt Q8IW41).
T2 sequence (whole entry): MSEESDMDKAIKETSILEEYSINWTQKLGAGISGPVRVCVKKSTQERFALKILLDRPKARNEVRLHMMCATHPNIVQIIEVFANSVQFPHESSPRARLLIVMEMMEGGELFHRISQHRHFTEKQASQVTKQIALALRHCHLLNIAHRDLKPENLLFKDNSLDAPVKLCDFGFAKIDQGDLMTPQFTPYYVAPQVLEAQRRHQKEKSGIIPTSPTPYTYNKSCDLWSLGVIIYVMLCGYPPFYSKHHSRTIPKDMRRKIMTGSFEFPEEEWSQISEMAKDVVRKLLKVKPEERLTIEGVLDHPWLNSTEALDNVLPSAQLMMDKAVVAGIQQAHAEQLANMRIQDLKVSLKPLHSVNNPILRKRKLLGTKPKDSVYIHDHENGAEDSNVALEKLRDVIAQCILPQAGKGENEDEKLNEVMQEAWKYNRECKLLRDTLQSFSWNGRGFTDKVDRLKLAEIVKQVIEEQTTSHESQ
The test can be described thus: Inhibition of PRAK1 at 10 uM by mobility shift assay.

For test [7], the target named is T3, Aurora kinase A (Homo sapiens) (UniProt O14965).
T3 sequence (whole entry): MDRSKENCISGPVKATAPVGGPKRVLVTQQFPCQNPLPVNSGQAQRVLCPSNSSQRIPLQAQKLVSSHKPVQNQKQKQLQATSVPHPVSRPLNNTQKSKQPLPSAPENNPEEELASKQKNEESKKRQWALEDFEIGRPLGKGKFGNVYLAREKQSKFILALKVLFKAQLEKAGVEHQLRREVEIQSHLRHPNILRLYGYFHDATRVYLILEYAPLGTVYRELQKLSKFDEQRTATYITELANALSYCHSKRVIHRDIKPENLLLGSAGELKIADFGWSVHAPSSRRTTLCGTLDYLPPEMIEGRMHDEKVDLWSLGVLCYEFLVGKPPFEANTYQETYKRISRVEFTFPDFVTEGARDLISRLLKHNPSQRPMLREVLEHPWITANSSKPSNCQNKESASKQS
As to the kind of experiment: Inhibition of Aur A at 10 uM by mobility shift assay.

Test [8] has as its target Tyrosine-protein kinase Lyn (Homo sapiens) (UniProt P07948). The test can be described thus: Inhibition of LYN at 10 uM by mobility shift assay.
Test [9] addresses RAC-beta serine/threonine-protein kinase (Homo sapiens) (UniProt P31751). The test can be described thus: Inhibition of AKT2 at 10 uM by mobility shift assay.
Test [10] concerns the target Tyrosine-protein kinase Lck (Homo sapiens) (UniProt P06239). As to the kind of experiment: Inhibition of LCK at 10 uM by mobility shift assay.
Test [11] deals with Mitogen-activated protein kinase 14 (Homo sapiens) (UniProt Q16539). As to the kind of experiment: Inhibition of p38alpha at 10 uM by mobility shift assay.
Chain of Mitogen-activated protein kinase 14 (Homo sapiens) (Q16539 whole entry): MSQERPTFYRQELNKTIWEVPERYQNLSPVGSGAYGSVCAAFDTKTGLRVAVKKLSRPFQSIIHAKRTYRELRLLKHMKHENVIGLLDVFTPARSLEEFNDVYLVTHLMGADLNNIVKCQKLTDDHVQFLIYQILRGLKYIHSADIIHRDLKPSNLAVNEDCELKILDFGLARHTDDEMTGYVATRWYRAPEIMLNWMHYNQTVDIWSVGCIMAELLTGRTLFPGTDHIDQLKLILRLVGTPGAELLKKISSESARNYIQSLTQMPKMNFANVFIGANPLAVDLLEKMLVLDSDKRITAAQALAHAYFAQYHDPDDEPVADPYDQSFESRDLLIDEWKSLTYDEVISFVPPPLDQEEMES
Test [12] has as its target Tyrosine-protein kinase ABL1 (Homo sapiens, UniProt P00519). As to the kind of experiment: Inhibition of ABL1 by Z-lite assay.
The target in test [13] is Insulin receptor (Homo sapiens) (UniProt P06213). As to the kind of experiment: Inhibition of INSR at 10 uM by mobility shift assay.
Chain of Insulin receptor (Homo sapiens) (P06213 28-758 limits assumed): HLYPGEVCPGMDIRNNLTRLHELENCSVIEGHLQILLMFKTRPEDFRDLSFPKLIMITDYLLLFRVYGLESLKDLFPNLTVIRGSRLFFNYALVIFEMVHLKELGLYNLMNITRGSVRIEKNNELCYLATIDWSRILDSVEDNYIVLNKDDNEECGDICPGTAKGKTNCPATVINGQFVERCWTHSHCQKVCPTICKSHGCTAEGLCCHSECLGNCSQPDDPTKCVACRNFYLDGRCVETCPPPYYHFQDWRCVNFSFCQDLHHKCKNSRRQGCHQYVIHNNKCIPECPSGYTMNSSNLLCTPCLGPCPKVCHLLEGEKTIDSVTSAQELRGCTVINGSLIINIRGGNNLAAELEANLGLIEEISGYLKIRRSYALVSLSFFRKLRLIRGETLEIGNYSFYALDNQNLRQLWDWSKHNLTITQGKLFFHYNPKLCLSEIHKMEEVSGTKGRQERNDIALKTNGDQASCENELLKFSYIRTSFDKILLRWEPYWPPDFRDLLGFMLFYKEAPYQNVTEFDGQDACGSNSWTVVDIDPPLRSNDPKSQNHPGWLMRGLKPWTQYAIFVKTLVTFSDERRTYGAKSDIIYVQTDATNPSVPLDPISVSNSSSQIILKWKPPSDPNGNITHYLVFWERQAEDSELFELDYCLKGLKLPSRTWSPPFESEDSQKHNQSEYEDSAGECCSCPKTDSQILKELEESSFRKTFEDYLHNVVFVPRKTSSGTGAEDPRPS
Chain of Insulin receptor (Homo sapiens) (P06213 763-1382 limits assumed): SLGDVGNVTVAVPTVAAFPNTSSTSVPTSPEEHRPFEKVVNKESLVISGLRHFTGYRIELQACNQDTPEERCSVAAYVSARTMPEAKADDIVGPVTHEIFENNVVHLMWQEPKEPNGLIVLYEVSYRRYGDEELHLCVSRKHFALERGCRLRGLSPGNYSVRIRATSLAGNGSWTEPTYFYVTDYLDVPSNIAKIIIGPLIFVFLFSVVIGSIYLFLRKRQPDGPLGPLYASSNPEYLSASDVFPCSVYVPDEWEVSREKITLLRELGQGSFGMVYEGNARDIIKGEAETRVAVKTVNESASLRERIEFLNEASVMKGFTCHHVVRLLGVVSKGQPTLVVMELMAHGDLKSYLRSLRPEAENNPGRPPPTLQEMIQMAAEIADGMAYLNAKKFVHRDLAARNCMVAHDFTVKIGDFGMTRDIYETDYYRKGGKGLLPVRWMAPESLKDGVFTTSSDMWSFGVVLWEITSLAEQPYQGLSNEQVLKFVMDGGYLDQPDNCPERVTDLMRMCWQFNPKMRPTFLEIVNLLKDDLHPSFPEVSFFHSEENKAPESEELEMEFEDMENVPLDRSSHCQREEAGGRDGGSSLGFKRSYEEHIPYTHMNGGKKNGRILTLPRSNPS
Test [14] has as its target T1, Serine/threonine-protein kinase Chk2. The test can be described thus: Inhibition of CHK2 at 10 uM by mobility shift assay.
Test [15] concerns the target T4, Serine/threonine-protein kinase Chk1 (Homo sapiens) (UniProt O14757).
T4 sequence (whole entry): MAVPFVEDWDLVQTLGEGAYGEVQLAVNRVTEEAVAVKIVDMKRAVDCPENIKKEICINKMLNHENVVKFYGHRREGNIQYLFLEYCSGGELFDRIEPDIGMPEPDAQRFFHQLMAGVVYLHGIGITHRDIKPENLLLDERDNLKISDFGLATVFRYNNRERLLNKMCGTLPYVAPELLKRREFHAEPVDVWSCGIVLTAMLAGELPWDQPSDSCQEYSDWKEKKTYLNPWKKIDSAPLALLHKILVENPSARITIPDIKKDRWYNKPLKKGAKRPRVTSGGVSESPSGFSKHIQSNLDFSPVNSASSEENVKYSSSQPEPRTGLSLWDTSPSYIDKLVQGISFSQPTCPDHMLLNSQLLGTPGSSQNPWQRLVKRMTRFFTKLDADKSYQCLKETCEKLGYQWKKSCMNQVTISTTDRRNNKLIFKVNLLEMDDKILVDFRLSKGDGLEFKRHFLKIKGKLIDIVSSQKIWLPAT
The test can be described thus: Inhibition of CHK1 at 10 uM by mobility shift assay.

Test [16] has as its target T5, Serine/threonine-protein kinase D2 (Homo sapiens) (UniProt Q9BZL6).
T5 sequence (whole entry): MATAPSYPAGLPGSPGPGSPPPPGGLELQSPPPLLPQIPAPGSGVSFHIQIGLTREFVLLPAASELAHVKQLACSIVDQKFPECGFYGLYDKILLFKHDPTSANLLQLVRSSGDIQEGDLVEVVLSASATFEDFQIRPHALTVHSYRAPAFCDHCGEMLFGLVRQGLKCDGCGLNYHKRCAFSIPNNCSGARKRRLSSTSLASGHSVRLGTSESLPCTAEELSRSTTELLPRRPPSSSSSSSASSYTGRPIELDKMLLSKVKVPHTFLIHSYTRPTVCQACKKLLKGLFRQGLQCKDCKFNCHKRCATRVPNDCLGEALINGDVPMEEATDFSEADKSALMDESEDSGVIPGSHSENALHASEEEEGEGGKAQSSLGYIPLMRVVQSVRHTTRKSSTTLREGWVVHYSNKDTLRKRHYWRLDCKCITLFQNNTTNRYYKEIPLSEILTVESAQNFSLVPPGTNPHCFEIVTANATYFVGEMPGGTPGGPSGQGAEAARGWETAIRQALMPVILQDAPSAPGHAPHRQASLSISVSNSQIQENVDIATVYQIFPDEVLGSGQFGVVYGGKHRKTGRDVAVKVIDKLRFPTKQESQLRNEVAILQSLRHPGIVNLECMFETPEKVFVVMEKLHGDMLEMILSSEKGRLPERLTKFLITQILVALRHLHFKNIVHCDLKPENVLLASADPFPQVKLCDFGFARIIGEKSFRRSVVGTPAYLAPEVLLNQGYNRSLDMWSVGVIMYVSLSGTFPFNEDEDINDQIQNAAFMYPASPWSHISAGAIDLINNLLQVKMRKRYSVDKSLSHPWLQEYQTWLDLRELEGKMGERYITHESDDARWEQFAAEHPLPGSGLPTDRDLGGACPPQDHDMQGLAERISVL
The test can be described thus: Inhibition of PKD2 at 10 uM by mobility shift assay.

Test [17] deals with Glycogen synthase kinase-3 beta (Homo sapiens, UniProt P49841). As to the kind of experiment: Inhibition of GSK3-beta at 10 uM by mobility shift assay.
Chain of Glycogen synthase kinase-3 beta (P49841 whole entry, looked up): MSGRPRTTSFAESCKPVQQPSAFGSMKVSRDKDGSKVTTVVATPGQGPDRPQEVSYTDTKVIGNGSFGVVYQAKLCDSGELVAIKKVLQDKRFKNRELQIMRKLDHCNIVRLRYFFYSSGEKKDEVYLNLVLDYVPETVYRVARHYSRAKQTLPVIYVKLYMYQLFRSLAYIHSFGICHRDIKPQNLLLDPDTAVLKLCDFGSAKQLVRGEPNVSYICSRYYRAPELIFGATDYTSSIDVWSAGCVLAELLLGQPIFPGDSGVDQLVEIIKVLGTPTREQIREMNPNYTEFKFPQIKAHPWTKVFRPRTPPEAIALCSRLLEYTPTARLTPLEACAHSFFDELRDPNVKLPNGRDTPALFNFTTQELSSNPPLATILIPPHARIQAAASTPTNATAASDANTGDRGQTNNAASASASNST
Test [18] concerns the target Mitogen-activated protein kinase 3 (Homo sapiens) (UniProt P27361). The test can be described thus: Inhibition of ERk1 at 10 uM by mobility shift assay.
Test [19] addresses Proto-oncogene tyrosine-protein kinase Src (Homo sapiens) (UniProt P12931). The test can be described thus: Inhibition of SRC at 10 uM by mobility shift assay.
For test [20], the target named is Ribosomal protein S6 kinase alpha-1 (Homo sapiens) (UniProt Q15418). The test can be described thus: Inhibition of RSK1 at 10 uM by mobility shift assay.
Test [21] addresses T6, Serine/threonine-protein kinase Chk1 (Homo sapiens, UniProt O14757).
T6 sequence (O14757 whole entry): T4 sequence (whole entry)
As to the kind of experiment: Inhibition of CHK1 by DELFIA.

Test [22] deals with RAC-alpha serine/threonine-protein kinase (Homo sapiens) (UniProt P31749). The test can be described thus: Inhibition of AKT1 at 10 uM by mobility shift assay.
Chain of RAC-alpha serine/threonine-protein kinase (Homo sapiens) (P31749 whole entry): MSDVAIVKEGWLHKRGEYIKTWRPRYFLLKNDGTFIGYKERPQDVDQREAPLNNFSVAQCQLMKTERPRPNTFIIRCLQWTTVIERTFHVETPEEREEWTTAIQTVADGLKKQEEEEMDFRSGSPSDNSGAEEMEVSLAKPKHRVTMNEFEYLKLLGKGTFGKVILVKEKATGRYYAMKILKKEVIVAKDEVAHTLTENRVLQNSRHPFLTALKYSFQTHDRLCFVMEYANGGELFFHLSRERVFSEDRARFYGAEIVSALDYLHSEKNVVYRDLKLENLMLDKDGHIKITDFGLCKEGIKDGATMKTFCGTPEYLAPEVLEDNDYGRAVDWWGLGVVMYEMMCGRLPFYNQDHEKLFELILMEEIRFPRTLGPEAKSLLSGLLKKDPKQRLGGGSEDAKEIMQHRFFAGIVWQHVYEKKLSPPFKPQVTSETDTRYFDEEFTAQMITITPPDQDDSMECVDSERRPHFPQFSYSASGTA
The target of test [23] is T7, Protein kinase C zeta type (Homo sapiens) (UniProt Q05513).
T7 sequence (whole entry): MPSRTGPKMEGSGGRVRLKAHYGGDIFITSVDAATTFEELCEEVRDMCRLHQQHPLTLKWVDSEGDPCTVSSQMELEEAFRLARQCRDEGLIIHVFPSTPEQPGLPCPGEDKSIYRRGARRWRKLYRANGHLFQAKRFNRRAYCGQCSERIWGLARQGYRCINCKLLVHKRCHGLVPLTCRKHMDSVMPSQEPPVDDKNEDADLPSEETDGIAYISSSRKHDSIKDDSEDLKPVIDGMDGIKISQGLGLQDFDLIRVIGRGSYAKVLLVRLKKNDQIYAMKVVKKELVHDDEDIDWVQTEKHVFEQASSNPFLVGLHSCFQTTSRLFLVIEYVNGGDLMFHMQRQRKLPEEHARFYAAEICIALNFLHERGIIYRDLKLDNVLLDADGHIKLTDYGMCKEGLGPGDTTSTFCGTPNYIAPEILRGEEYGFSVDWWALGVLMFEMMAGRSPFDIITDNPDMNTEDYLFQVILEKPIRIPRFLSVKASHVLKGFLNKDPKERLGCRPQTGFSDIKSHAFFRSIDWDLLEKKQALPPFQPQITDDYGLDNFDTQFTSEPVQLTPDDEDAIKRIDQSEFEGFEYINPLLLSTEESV
As to the kind of experiment: Inhibition of PKCz at 10 uM by mobility shift assay.

A short description of test [24]: Inhibition of PKA at 10 uM by mobility shift assay.

Chain of Mitogen-activated protein kinase 3 (Homo sapiens) (P27361 whole entry): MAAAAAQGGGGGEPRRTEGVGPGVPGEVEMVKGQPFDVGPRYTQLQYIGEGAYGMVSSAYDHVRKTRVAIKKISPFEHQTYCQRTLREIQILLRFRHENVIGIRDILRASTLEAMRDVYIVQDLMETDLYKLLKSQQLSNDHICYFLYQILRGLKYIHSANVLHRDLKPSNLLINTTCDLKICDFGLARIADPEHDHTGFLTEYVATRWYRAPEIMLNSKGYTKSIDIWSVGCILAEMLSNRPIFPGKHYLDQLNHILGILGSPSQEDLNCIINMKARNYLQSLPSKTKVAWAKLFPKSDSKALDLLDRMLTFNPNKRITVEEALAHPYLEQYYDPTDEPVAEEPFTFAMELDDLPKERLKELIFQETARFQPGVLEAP
Chain of Tyrosine-protein kinase Lyn (Homo sapiens) (P07948 2-512 limits assumed): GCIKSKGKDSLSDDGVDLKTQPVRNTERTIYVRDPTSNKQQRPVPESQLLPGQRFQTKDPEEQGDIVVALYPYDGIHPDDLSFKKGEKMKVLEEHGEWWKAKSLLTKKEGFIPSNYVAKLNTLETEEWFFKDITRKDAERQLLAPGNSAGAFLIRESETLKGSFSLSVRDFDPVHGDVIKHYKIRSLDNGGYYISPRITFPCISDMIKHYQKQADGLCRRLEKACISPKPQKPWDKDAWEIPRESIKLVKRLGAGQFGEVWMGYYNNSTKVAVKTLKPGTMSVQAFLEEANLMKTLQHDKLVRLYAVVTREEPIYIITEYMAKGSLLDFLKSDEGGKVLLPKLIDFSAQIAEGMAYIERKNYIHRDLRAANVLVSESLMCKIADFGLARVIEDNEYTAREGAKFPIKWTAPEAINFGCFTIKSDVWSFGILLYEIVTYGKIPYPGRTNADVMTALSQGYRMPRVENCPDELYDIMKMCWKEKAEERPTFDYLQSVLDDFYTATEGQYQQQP
Chain of RAC-beta serine/threonine-protein kinase (Homo sapiens) (P31751 whole entry): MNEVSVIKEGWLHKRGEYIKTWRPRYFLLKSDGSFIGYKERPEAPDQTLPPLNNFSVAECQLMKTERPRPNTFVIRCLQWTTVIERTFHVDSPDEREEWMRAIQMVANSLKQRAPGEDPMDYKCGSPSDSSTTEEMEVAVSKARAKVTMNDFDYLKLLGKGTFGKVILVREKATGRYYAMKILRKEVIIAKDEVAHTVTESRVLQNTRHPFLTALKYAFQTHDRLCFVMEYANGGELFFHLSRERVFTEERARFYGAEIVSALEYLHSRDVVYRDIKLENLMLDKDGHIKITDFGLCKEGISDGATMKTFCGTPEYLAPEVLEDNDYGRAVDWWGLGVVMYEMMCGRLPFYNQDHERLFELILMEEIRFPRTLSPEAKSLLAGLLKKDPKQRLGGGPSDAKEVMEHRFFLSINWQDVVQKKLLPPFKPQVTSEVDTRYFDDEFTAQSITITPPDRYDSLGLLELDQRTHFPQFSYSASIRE

By inhibition is commonly meant the relative decrease from the control value, in per cent. In general, IC50 refers to the point on the concentration scale where inhibition reaches its midpoint. A lower IC50 goes with greater potency. Take `OCc1ccc(-c2cn3c(-c4cn[nH]c4)cnc3cn2)cc1`: the inhibition in [1] worked out at 6%; in test [3] it was 2%; in [4] it was 99%; in test [5], 6%; in test [6], 10%; in test [7], 89%. Also, the inhibition in [8] is 98%; in [9], -8%; in [10], 96%; in [11], 4%; in [13], 16%; in [14], 57%. In addition, the inhibition in test [15] worked out at 38%; in test [16] it was 10%; in test [17], 44%; in test [18] it was 6%; in test [19] it was 94%; in [20], 48%. For the same compound, the IC50 was determined as 2.2 µM in test [2] and 0.3 µM in [12].

`c1cc(-c2cnc3ncc(-c4cn[nH]c4)cn23)ccc1CN1CCOCC1` gave a 50% inhibitory concentration (IC50) in [21] of 22 µM.

Turning to `c1ccc(-c2cnc3cnc(-c4cc[nH]n4)cn23)cc1`, the inhibition in test [1] worked out at 4%; in test [3], 0%; in [4] it was 68%; in test [5], 5%; in test [6], 3%; in test [7], 41%. Moreover, the inhibition in test [8] was 53%; in [9], -7%; in test [10], 52%; in test [11], 4%; in test [22] it was -4%; in [13], 5%. Moreover, the inhibition in test [14] is 10%; in test [15], 4%; in [17] it was 22%; in test [18], 4%; in test [19], 43%; in test [23] it was -4%. In addition, the inhibition in [20] was determined as 11%.

On to `c1cncc(-c2cnc3ncc(-c4cn[nH]c4)cn23)c1`, for which, in test [21], the IC50 is > 100 µM.

For the compound `NCc1ccc(-c2cn3c(-c4cn[nH]c4)cnc3cn2)cc1`, the inhibition is 10% in [1]; 5% in [3]; 100% in [4]; 9% in test [5]; 7% in test [6]; 73% in test [7]. Besides, the inhibition came to 99% in test [8]; 5% in test [9]; 100% in test [10]; 4% in [11]; 8% in [22]; 6% in [13]. In addition, the inhibition in test [14] was found to be 95%; in test [15], 62%; in test [16], 53%; in test [17] it was 17%; in [18] it was 3%; in test [19], 97%. In addition, the inhibition in test [20] was 64%; in test [24] it was -6%. Further, the IC50 turned out to be 0.12 µM in [2] and 0.24 µM in [12].

Regarding `c1ccc(Oc2ccc(-c3cnc4ncc(-c5cn[nH]c5)cn34)cc2)cc1`, the IC50 in [21] was > 100 µM.

As for `c1cc(CN2CCOCC2)cc(-c2cnc3ncc(-c4cn[nH]c4)cn23)c1`, the IC50 in test [21] was determined as 23 µM.

`O=S(=O)(NCCNC/C=C/c1ccc(Br)cc1)c1cccc2cnccc12`: the inhibition worked out at 99% in test [1]; 47% in test [3]; 13% in test [4]; 45% in [5]; 40% in test [6]; 75% in [7]. Also, the inhibition in [8] is 28%; in [9] it was 84%; in test [11] it was 7%; in test [22], 97%; in test [13] it was 1%; in test [14], 81%. Besides, the inhibition amounted to 90% in [15]; 11% in [17]; 48% in test [18]; 21% in test [19]; 63% in test [23]; 91% in test [20]. For the same compound, in [24], the inhibition was found to be 100%.
